The record followed here is patent publication US20130123271A1, “HETEROCYCLIC COMPOUNDS, THEIR PREPARATION AND THERAPEUTIC APPLICATION” (FOVEA PHARMACEUTICALS, priority 2010, published 2013).

Data set [1] has as its target h Src (Homo sapiens, UniProt P12931). Put plainly: LC3000 Src assay (off-chip incubation mobility-shift kinase assay, Caliper LabChip). Conditions: ATP at KM apparent. It is filed as biochemical. Here is the method: The screening and profiling experiments described here were performed using Caliper Life Sciences' proprietary LabChip™ technology. Caliper LC3000 and EZ Reader II instruments are widely used throughout the drug discovery process for assay development, primary screening, selectivity screening, generation of Structure-Activity Relationships (SARs) and Mechanism of Action (MOA) studies. The LabChip™ technology is particularly well suited for enzymatic ‘targets’ such as kinases, proteases, phosphatases, histone deacetylases (HDAC), phosphodiesterases (PDE), and acyl-transferases. The key benefit of the technology is the separation and direct measurement of substrates and products, which allows for higher signal-to-noise ratios and fewer false positive/negative results. This direct measurement also allows for the identification and elimination of enzymatic activities that are not associated with the kinase reaction of interest.
The off-chip incubation mobility-shift kinase assay uses a microfluidic chip to measure the conversion of a fluorescent peptide substrate to a phosphorylated product. The reaction mixture, from a microtiter plate well, is introduced through a capillary sipper onto the chip, where the nonphosphorylated substrate and phosphorylated product are separated by electrophoresis and detected via laser-induced fluorescence. […] The phosphorylated product migrates through the chip faster than the non-phosphorylated substrate, and signals from the two forms of the peptide appear as distinct peaks. Caliper's data analysis software (HTSWA) determines peak heights, from which the ratio of product to the peak sum P/(P+S) and percent (%) conversion is calculated. This value is used to compare compound wells to control wells present on the plate, and thereby determine the % inhibition values for the compound. The formula used to calculate % inhibition is as follows, where C100% is the average % conversion of the 100% activity wells and C0% is the average % conversion of the 0% activity wells:
(1-(%conversionofsample—C0%)/(C100%−C0%))*100
Compounds were dissolved in 100% DMSO and diluted to 25× the final desired screening concentration. Serial dilutions were performed to obtain the concentrations specified for particular studies. One μl of each concentration was transferred, in duplicate, to a 384-well Greiner microtiter plate. Generally, 12 μL of enzyme buffer containing purified kinase (various suppliers), 100 mM HEPES, pH 7.5, 1 mM DTT (Calbiochem, 2333153), 10 mM MgCl2 (Sigma, M-1028) or 10 mM MnCl2 (Sigma, M-1787) (assay specific), and 0.002% Brij-35 (Sigma, B4184) was added to each well. Compound and enzyme were allowed to pre-incubate for 15 minutes. 12 μL of peptide/ATP buffer containing 100 mM HEPES, pH 7.5, 1.5 μM fluorescein-labeled peptide (specific to kinase of interest), ATP (at KM apparent, Sigma, A9187), and 0.002% Brij-35 was then added to each well to initiate the reaction. Generally, reactions were incubated for 1-1.5 hours at room temperature to obtain adequate (15-40%) conversion of peptide to phosphorylated product in the linear range of the reaction. Reactions were terminated with the addition of 45 μL of Stop Buffer (containing 20 mM EDTA). Plates were then read on the LabChip 3000 using a 12-sipper LabChip. % conversion values and % inhibition values were obtained as described and IC50 curves of compounds were generated using Graphpad Prism Version 4 or 5.01. A nonlinear curve fit using the sigmoidal dose response—variable slope fit was used to graph IC50 curves and determine IC50 values and hillslopes.

Data set [2] is described as follows: Ussing chamber permeation study through rabbit cornea. The data set is classed as in vitro ADME. To be noted: 37° C., 0.5 cm2 rabbit cornea. The method, then: Ussing chambers were used for the permeation study each day of experiment.
3 mL of solution were placed in donor side of Ussing chambers and 3 mL of Ringer solution were in receiver side. Freshly removed rabbit corneal tissue were placed between the two half chambers.
Temperature was maintained at 37° C. during all the flux study and oxygenation was provided by a continuous perfusion of carbogen (oxygen/carbonic acid) (95/5),
Rabbits were euthanized and the 6 corneas were removed and used immediately. 500 μL of receptor side liquid were removed from Ussing chambers and replaced by fresh buffer. The samples were analyzed immediately (less than 10 hours after collection).
100 μL of donor side liquid were removed from Ussing chambers and not replaced. The samples were diluted immediately (less than 1 hour) after collection and analyzed less than 10 hours after dilution. Analysis was performed on HPLC (Stationary phase: C18 (Particle size: 3 μm Length: 5 cm, using a gradient from 5 to 95% ACN/water (0.1% formic acid)).
At the end of the sampling period, all corneas were discarded.

A short description of data set [3]: Solubility in HPbCD 7% pH 5. Conditions: HPbCD 7% solution, aqueous with cosolvent or surfactant or cyclodextrin, read-out: Solubility HPbCD 7% pH 5 (mg/ml) measured. It is filed as physicochemical.
Data set [4] is described as follows: Colour of the compound. It is filed as physicochemical. To be noted: powder.
The target of data set [5] is Src/Lyn (h) (Homo sapiens, UniProt P12931). Briefly: In vitro potency Src/Lyn (h), Table 2. It is filed as biochemical.

Structures are written as SMILES. In brackets after ≈: the same amount, converted by molar mass.

h Src, sequence (P12931 whole entry): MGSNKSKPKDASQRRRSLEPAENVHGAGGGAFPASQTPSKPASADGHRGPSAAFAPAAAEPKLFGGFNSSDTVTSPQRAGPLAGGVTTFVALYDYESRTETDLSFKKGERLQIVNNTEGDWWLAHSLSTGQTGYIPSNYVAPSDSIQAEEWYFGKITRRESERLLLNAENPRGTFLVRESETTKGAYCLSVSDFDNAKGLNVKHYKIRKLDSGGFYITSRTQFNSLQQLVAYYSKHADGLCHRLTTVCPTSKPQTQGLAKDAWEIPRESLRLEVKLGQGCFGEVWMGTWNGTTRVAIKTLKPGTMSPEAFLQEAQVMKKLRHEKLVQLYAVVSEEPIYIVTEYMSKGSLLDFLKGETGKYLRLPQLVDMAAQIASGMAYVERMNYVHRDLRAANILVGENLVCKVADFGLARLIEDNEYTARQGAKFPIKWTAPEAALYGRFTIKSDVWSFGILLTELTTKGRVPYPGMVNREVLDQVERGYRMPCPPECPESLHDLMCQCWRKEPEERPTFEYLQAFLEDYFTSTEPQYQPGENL
Src/Lyn (h), sequence (P12931 whole entry): as above

A word on the IC50: it is the concentration at which inhibition is half-maximal. `Cc1nc(Nc2nc3ccc(-c4cc(O)ccc4Cl)cn3n2)cc(N2CCN(CCO)CC2)n1` [Compound 27, 4-Chloro-3-(2-{6-[4-(2-hydroxy-ethyl)-piperazin-1-yl]-2-methyl-pyrimidin-4-ylamino}-[1,2,4]triazolo[1,5-a]pyridin-6-yl)-phenol]: the IC50 in data set [1] and in data set [5] was 83 nM in each case. In addition, the “Flux between 2 and 4 hours through 0.5 cm2 of rabbit cornea (μg/h/cm2)” value in data set [2] stood at 19 μg/h/cm2. Moreover, the solubility in data set [3] is above 10 mg/mL. In addition, the Colour entry in data set [4] is listed as “White”.
Take `Cc1cc(Nc2nc3ccc(-c4cc(O)ccc4Cl)cn3n2)cc(N2CCN(CCO)CC2)c1` [Compound 28, 4-Chloro-3-(2-{3-[4-(2-hydroxy-ethyl)-piperazin-1-yl]-5-methyl-phenylamino}-[1,2,4]triazolo[1,5-a]pyridin-6-yl)-phenol]: the IC50 in data set [1] and in data set [5] was 3 nM each time. Moreover, in data set [2], the “Flux between 2 and 4 hours through 0.5 cm2 of rabbit cornea (μg/h/cm2)” value was 8 μg/h/cm2. In data set [3], the solubility was 7.5 mg/mL (≈ 15.7 mM). Further, the Colour result in data set [4] is given as “White”.
Turning to `COc1ccc(Nc2ncc3cc(-c4cc(O)ccc4Cl)ccc3n2)cn1` [Compound 40, 4-Chloro-3-[2-(6-methoxy-pyridin-3-ylamino)-quinazolin-6-yl]-phenol], in data set [1], the IC50 came to 10 nM.
For `[O-][N+]1(CCOc2ccc(Nc3nc4ccc(-c5cc(O)ccc5Cl)cn4n3)cc2)CCCC1` [Compound 41, 4-Chloro-3-(2-{4-[2-(1-oxy-pyrrolidin-1-yl)-ethoxy]-phenylamino}-[1,2,4]triazolo[1,5-a]pyridin-6-yl)-phenol], the concentration for half-maximal inhibition (IC50) in data set [1] turned out to be 55 nM.
`Oc1ccc(Cl)c(-c2ccc3nc(Nc4ccc5cc[nH]c5c4)ncc3c2)c1` [Compound 42, 4-Chloro-3-[2-(1 H-indol-6-ylamino)-quinazolin-6-yl]-phenol]: the IC50 in data set [1] is 100 nM.
For the compound `OCc1cc(Nc2ncc3cc(-c4cc(O)ccc4Cl)ccc3n2)ccn1` [Compound 43, 4-Chloro-3-[2-(2-hydroxymethyl-pyridin-4-ylamino)-quinazolin-6-yl]-phenol], the IC50 in data set [1] and in data set [5] was 0.7 nM throughout. Moreover, in data set [2], the “Flux between 2 and 4 hours through 0.5 cm2 of rabbit cornea (μg/h/cm2)” value came out at 6 μg/h/cm2. Moreover, the solubility in data set [3] was determined as 1.5 mg/mL (≈ 3.96 mM). Besides, in data set [4], the Colour result is “Pale”.
For the compound `O=C1CCCN1CCOc1ccc(Nc2nc3ccc(-c4cc(O)ccc4Cl)cn3n2)cn1` [Compound 44, 1-(2-{5-[6-(2-Chloro-5-hydroxy-phenyl)-[1,2,4]triazolo[1,5-a]pyridin-2-ylamino]-pyridin-2-yloxy}-ethyl)-pyrrolidin-2-one], in data set [1], the IC50 worked out at 57 nM.
As for `OCCn1cnc2cc(Nc3ncc4cc(-c5cc(O)ccc5Cl)ccc4n3)ccc21` [Compound 45, 4-Chloro-3-{2-[1-(2-hydroxy-ethyl)-1H-benzoimidazol-5-ylamino]-quinazolin-6-yl}-phenol], the figures for the IC50 in data set [1] and in data set [5] were 0.5 nM and 1 nM, respectively. Besides, in data set [2], the “Flux between 2 and 4 hours through 0.5 cm2 of rabbit cornea (μg/h/cm2)” value was 8 μg/h/cm2. In addition, in data set [3], the solubility worked out at 2.3 mg/mL (≈ 5.33 mM). In addition, in data set [4], the Colour entry was “Pale”.
`Cc1cc(Nc2ncc3cc(-c4cc(O)ccc4Cl)ccc3n2)cc(N2CCN(CCO)CC2)c1` [Compound 46, 4-Chloro-3-(2-{3-[4-(2-hydroxy-ethyl)-piperazin-1-yl]-5-methyl-phenylamino}-quinazolin-6-yl)-phenol]: the half-maximal inhibitory concentration (IC50) in data set [1] and in data set [5] was 0.8 nM in each case. In data set [2], the “Flux between 2 and 4 hours through 0.5 cm2 of rabbit cornea (μg/h/cm2)” value was determined as 13 μg/h/cm2. Further, the solubility in data set [3] is above 10 mg/mL. For the same compound, the Colour entry in data set [4] is “Pale”.
As to `OCCN1CCN(c2cc(CO)cc(Nc3nc4ccc(-c5cc(O)ccc5Cl)cn4n3)c2)CC1` [Compound 47, 4-Chloro-3-(2-{3-[4-(2-hydroxy-ethyl)-piperazin-1-yl]-5-hydroxymethyl-phenylamino}-[1,2,4]triazolo[1,5-a]pyridin-6-yl)-phenol], in data set [1], the IC50 was determined as 1 nM.
The same measure, in the same setting: then `Cc1cc(Nc2ncc3cc(-c4cc(OC(=O)c5ccccc5)ccc4Cl)ccc3n2)cc(N2CCN(CCO)CC2)c1` [Compound 49, Benzoic acid 4-chloro-3-(2-{3-[4-(2-hydroxy-ethyl)-piperazin-1-yl]-5-methyl-phenylamino}-quinazolin-6-yl)-phenyl ester], with 11 nM; and `OCCN1CCN(c2cc(CO)cc(Nc3ncc4cc(-c5cc(O)ccc5Cl)ccc4n3)c2)CC1` [Compound 50, 4-Chloro-3-(2-{3-[4-(2-hydroxy-ethyl)-piperazin-1-yl]-5-hydroxymethyl-phenylamino}-quinazolin-6-yl)-phenol], with 0.2 nM.
The same measure, in the same setting: to `Oc1ccc(Cl)c(-c2ccc3nc(Nc4ccncc4)nn3c2)c1` [compound 1, 4-Chloro-3-[2-(pyridin-4-ylamino)-[1,2,4]triazolo[1,5-a]pyridin-6-yl]-phenol] belongs 73 nM; to `Oc1ccc(Cl)c(-c2ccc3nc(Nc4cccnc4)nn3c2)c1` [compound 2, 4-Chloro-3-[2-(pyridin-3-ylamino)-[1,2,4]triazolo[1,5-a]pyridin-6-yl]-phenol], 120 nM.
As to `Oc1ccc(Cl)c(-c2ccc3nc(Nc4cncnc4)nn3c2)c1` [compound 3, 4-Chloro-3-[2-(pyrimidin-5-ylamino)-[1,2,4]triazolo[1,5-a]pyridin-6-yl]-phenol], the IC50 in data set [1] turned out to be 150 nM.
For the compound `OCc1cncc(Nc2nc3ccc(-c4cc(O)ccc4Cl)cn3n2)c1` [compound 4, 4-Chloro-3-[2-(5-hydroxymethyl-pyridin-3-ylamino)-[1,2,4]triazolo[1,5-a]pyridin-6-yl]-phenol], the IC50 in data set [1] turned out to be 39 nM.
`OCc1cc(CO)cc(Nc2nc3ccc(-c4cc(O)ccc4Cl)cn3n2)c1` [compound 5, 3-[2-(3,5-Bis-hydroxymethyl-phenylamino)-[1,2,4]triazolo[1,5-a]pyridin-6-yl]-4-chloro-phenol]: the IC50 in data set [1] and in data set [5] was 5 nM each time. For the same compound, in data set [2], the “Flux between 2 and 4 hours through 0.5 cm2 of rabbit cornea (μg/h/cm2)” value turned out to be 13 μg/h/cm2. The solubility in data set [3] was found to be 1.3 mg/mL (≈ 3.28 mM). Further, the Colour result in data set [4] is “White”.
For `COc1ccc(Nc2nc3ccc(-c4cc(O)ccc4Cl)cn3n2)cn1` [compound 7, 4-Chloro-3-[2-(6-methoxy-pyridin-3-ylamino)-[1,2,4]triazolo[1,5-a]pyridin-6-yl]-phenol], the IC50 in data set [1] was 80 nM.
On to `Oc1ccc(Cl)c(-c2ccc3nc(Nc4ccc(OCCN5CCCC5)cn4)nn3c2)c1` [compound 8, 4-Chloro-3-{2-[5-(2-pyrrolidin-1-yl-ethoxy)-pyridin-2-ylamino]-[1,2,4]triazolo[1,5-a]pyridin-6-yl}-phenol], for which, in data set [1], the IC50 was 100 nM.
As to `Oc1ccc(Cl)c(-c2ccc3nc(Nc4ccccn4)nn3c2)c1` [compound 12, 4-Chloro-3-[2-(pyridin-2-ylamino)-[1,2,4]triazolo[1,5-a]pyridin-6-yl]-phenol], in data set [1], the IC50 turned out to be 170 nM.
With `OCc1ccc(Nc2nc3ccc(-c4cc(O)ccc4Cl)cn3n2)cn1` [compound 14, 4-Chloro-3-[2-(6-hydroxymethyl-pyridin-3-ylamino)-[1,2,4]triazolo[1,5-a]pyridin-6-yl]-phenol], the IC50 in data set [1] came out at 47 nM.
